Where a name gives a salt, the structure may show the parent alone.

T1 sequence (P22411 whole entry): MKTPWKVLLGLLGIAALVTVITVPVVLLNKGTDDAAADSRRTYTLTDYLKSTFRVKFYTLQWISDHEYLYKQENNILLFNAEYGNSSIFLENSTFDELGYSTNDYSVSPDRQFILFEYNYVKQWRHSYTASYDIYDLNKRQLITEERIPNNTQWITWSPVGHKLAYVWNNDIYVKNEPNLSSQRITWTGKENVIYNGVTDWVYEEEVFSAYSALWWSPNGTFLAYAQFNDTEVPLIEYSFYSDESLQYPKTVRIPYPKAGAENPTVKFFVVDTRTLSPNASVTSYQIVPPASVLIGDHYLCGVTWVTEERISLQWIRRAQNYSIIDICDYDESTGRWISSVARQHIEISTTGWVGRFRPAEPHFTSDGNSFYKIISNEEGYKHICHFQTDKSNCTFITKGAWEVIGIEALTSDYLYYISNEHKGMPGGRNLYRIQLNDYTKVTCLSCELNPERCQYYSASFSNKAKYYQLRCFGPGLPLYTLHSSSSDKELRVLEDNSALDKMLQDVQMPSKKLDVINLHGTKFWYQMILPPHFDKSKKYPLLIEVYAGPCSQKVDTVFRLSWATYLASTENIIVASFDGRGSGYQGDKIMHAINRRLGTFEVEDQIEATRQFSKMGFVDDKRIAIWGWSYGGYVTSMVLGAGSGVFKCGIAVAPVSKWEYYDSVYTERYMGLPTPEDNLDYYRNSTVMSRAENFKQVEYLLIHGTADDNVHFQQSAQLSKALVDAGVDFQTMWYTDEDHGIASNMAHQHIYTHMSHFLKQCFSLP

One series concerns the target T1, DPP-IV from porcine kidney (Sus scrofa, UniProt P22411).
T1 construct: DPP-IV from porcine kidney (Sigma, Munich); purchased Sigma, Munich; host or cells: porcine kidney
The series can be described thus: Measurement of the DPP-IV activity (fluorimetric H-Ala-Pro-AFC conversion). The note with it: DPP-IV 1 mU/ml, H-Ala-Pro-AFC 15 μM, Tris/HCl 40 mM pH 7.4, room temperature, typically 10 min. The class given is biochemical. How it is done: The activity of the compounds was assayed as follows: • Measurement of the DPP-IV activity:
The reaction was carried out at room temperature for various times (typically 10 min) and stopped at the end of the reaction by adding 20 μl of ZnCl2 (1 M). […] When inhibitors were added, the added buffer volume was adapted so that a total volume of 200 μl was maintained for the assay mixture.
`CC(C)=CCn1c(OC2CCCCC2CN)nc2c1c(=O)n(CC(=O)c1ccccc1)c(=O)n2C` (mixture of isomers) [Example 37, trans-8-(2-Aminomethylcyclohexyloxy)-3-methyl-7-(3-methylbut-2-enyl)-1-(2-oxo-2-phenylethyl)-3,7-dihydropurine-2,6-dione hydrochloride (mixture of diastereomers)] registered a concentration for half-maximal inhibition (IC50) of 4.5 nM.

As for `CC(C)=CCn1c(O[C@@H]2CCCC[C@@H]2CN)nc2c1c(=O)n(CC(=O)c1ccccc1)c(=O)n2C` (relative stereo) [Example 28, cis-8-(2-Aminomethylcyclohexyloxy)-3-methyl-7-(3-methylbut-2-enyl)-1-(2-oxo-2-phenylethyl)-3,7-dihydropurine-2,6-dione], the IC50 was 13 nM. Consider `CC(C)=CCn1c(OCCN)nc2c1c(=O)n(CC(=O)c1ccccc1)c(=O)n2C` [Example 2, 8-(2-Aminoethoxy)-3-methyl-7-(3-methylbut-2-enyl)-1-(2-oxo-2-phenylethyl)-3,7-dihydropurine-2,6-dione], for which the IC50 is 20 nM.

Turning to `CC(C)=CCn1c(OCC(N)Cc2ccc(Cl)cc2)nc2c1c(=O)n(CC(=O)c1ccccc1)c(=O)n2C` (stereo not shown) [Example 3, 8-[2-Amino-3-(4-chlorophenyl)propoxyl]-3-methyl-7-(3-methylbut-2-enyl)-1-(2-oxo-2-phenylethyl)-3,7-dihydropurine-2,6-dione], half-maximal inhibition (IC50) was put at 460 nM.

`CC(C)=CCn1c(OC[C@H](C)N)nc2c1c(=O)n(CC(=O)c1ccccc1)c(=O)n2C` [Example 4, (S)-8-(2-Aminopropoxy)-3-methyl-7-(3-methylbut-2-enyl)-1-(2-oxo-2-phenylethyl)-3,7-dihydropurine-2,6-dione] registered an IC50 of 28 nM. For the compound `CC(C)=CCn1c(OCC2CCCCN2)nc2c1c(=O)n(CC(=O)c1ccccc1)c(=O)n2C` (stereo not shown) [Example 7, 3-Methyl-7-(3-methylbut-2-enyl)-1-(2-oxo-2-phenylethyl)-8-(piperidin-2-ylmethoxy)-3,7-dihydropurine-2,6-dione], the IC50 worked out at 51 nM. On the same count and under the same terms, the same measure for `CC(C)=CCn1c(OC[C@H]2CCNC2)nc2c1c(=O)n(CC(=O)c1ccccc1)c(=O)n2C` [Example 9, (S)-3-Methyl-7-(3-methylbut-2-enyl)-1-(2-oxo-2-phenylethyl)-8-(pyrrolidin-3-ylmethoxy)-3,7-dihydropurine-2,6-dione hydrochloride]: 120 nM; for `CC(C)=CCn1c(OC[C@@H]2CCNC2)nc2c1c(=O)n(CC(=O)c1ccccc1)c(=O)n2C` [Example 10, (R)-3-Methyl-7-(3-methylbut-2-enyl)-1-(2-oxo-2-phenylethyl)-8-(pyrrolidin-3-ylmethoxy)-3,7-dihydropurine-2,6-dione hydrochloride]: 34 nM; for `CC(C)=CCn1c(OC[C@@H](C)N)nc2c1c(=O)n(CC(=O)c1ccccc1)c(=O)n2C` [Example 11, (R)-8-(2-Aminopropoxy)-3-methyl-7-(3-methylbut-2-enyl)-1-(2-oxo-2-phenylethyl)-3,7-dihydropurine-2,6-dione]: 100 nM.

System in the next series: not given
Assay: not given
Settings: not given
Compound `CC(C)=CCn1c(O[C@@H]2CCCC[C@H]2CN)nc2c1c(=O)n(CC(=O)c1ccccc1)c(=O)n2C` (single isomer, unassigned; diastereomer 1) [Example 38, trans-8-(2-Aminomethylcyclohexyloxy)-3-methyl-7-(3-methylbut-2-enyl)-1-(2-oxo-2-phenylethyl)-3,7-dihydropurine-2,6-dione (diastereomer 1)] gave a melting point of 151.7 °C.

Values taken from patent US7879864B2, “Substituted 8-aminoalkoxy-xanthine compounds and compositions useful in the treatment of hyperlipidemia and diabetes” (Sanofi-Aventis Deutschland GmbH, priority 2004, dated 2011).
